Laboratory results taken from patent US20210260015A1, “COMPOSITION FOR INHIBITING FAT ACCUMULATION” (National University Corporation Tokyo University of …, priority 2018, published 2021).

Tests used:
Assay type in all cases: in vivo, C57BL/6J male mice
[1] = Plasma levels of ketone bodies 5 weeks after the beginning of ingestion (enzymatic method); details: conclusion from diet groups
Experimental: (§1) Seven (7)-week-old C57BL/6J male mice (Japan SLC, Inc.) were acclimated with CLEA Rodent Diet CE-2 (manufactured by CLEA Japan, Inc.) for 1 week, and divided into 5 groups (n=9 or 10). Any of feeds having the compositions indicated in Tables 1 and 2, i.e., four types of test diets and a normal diet, was given to the respective groups for 5 weeks. Specifically, as the test diets, MCT diets were prepared by blending MCTs and LCT in a low-carbohydrate high-fat diet feed made based on an AIN-93G standard composition feed, and an LCT diet was prepared by blending LCT (manufactured by Wako Pure Chemical Industries) alone, without MCT, in a low-carbohydrate high-fat diet feed made based on an AIN-93G standard composition feed. […]
(§2) The ingestion amounts of the test diets and the body weight changes during the test period (5 weeks) were measured, and the weights of the various organs including adipose tissues and the plasma levels of ketone bodies were measured at the end of the test period. […] In addition, plasma was collected from the collected blood, and ketone bodies were quantified according to an enzymatic method.

[2] = Body weight changes of mice fed test diets for 5 weeks; details: conclusion from diet groups, C8 vs C10 and C12
Experimental: as §1, §2

[3] = Weights of adipose tissues 5 weeks after the beginning of ingestion; details: conclusion from diet groups, C8 vs C10 or C12
Experimental: as §1, §2

CCCCCCCC(=O)OCC(COC(=O)CCCCCCC)OC(=O)CCCCCCC [caprylic acid triglyceride (C8), caprylic acid triglyceride]
ketone body production, C8 vs C10 or C12 triglyceride [1]: produces ketone bodies more than those produced by capric acid triglyceride (C10) or lauric acid triglyceride (C12)
effect for suppressing body weight gain depending on the number of carbon atoms of the constituent fatty acid of MCT [2]: has a higher effect for suppressing body weight gain than those of capric acid triglyceride (C10) and lauric acid triglyceride (C12)
effect for suppressing neutral fat accumulation depending on the number of carbon atoms of the constituent fatty acid of MCT [3]: has a higher effect for suppressing neutral fat accumulation than that of capric acid triglyceride (C10) or lauric acid triglyceride (C12)
